The source of these data is patent US20100099676A1 (SHIONOGI & CO., LTD., priority 2006, published 2010).

What all share (experiment): Enzyme inhibiting activity of MMPs, fluorogenic peptide substrate
Holding throughout (assay type): biochemical

Assay [1] deals with T1, MMP-9 (Homo sapiens, UniProt P14780).
T1 construct: purchased Calbiochem (EMD/MERCK Biosciences)
Particulars: substrate MOCAc-Pro-Leu-Gly-Leu-A2Pr(DNP)-Ala-Arg-NH2, fluorescent intensity. The method, then: (§1) Various human MMPs (MMP-2, MMP-9 and MMP-13) were purchased from Calbiochem (EMD/MERCK Biosciences).
(§2) The enzyme activity of MMPs was measured according to the method described in C. Graham Knight, Frances Willenbrock and Gillian Murphy: A novel coumarin-labelled peptide for sensitive continuous assays of the matrix metalloproteinases: FEBS LETT., 296, (1992), 263-266. As a substrate, MOCAc-Pro-Leu-Gly-Leu-A2Pr(DNP)- Ala-Arg-NH2 (Peptide Institute, Inc. Osaka, Japan) was used, and the following four assays are performed per compound (inhibitor) for measuring the inhibiting activity.
(§3) (A) Substrate (synthetic substrate), enzyme (MMPs), inhibitor
(§4) (B) Substrate (synthetic substrate), inhibitor
(§5) (C) Substrate (synthetic substrate), enzyme (MMPs)
(§6) (D) Substrate (synthetic substrate)
(§7) In each assay, the fluorescent intensity was measured, and inhibition (%) was calculated by the following equation.
(§8) Inhibition (%)=[I−(A−B)/(C−D)]×100
(§9) IC50 indicates a concentration at which inhibition (%) is 50%.

The target in assay [2] is T2, MMP-2 (Homo sapiens, UniProt P08253).
T2 construct: purchased Calbiochem (EMD/MERCK Biosciences)
T2 sequence (P08253 110-660): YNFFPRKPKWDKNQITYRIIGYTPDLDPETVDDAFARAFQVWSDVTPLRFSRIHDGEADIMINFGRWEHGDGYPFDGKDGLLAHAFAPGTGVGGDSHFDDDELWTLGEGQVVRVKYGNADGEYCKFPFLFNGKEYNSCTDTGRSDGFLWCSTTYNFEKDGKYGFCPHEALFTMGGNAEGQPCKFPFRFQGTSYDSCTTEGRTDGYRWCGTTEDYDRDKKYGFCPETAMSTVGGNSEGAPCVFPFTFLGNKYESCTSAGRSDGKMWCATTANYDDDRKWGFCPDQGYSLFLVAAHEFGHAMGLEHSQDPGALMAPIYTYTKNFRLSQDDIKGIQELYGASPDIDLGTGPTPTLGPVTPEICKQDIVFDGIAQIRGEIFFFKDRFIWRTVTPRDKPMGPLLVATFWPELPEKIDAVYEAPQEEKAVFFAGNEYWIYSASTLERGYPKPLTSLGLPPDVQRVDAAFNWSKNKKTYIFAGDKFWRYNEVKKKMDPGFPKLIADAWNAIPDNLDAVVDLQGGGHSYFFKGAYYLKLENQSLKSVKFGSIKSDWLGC
Particulars: substrate MOCAc-Pro-Leu-Gly-Leu-A2Pr(DNP)-Ala-Arg-NH2, fluorescent intensity. The method, then:
as §1, §2, §3, §4, §5, §6, §7, §8, §9

Assay [3] concerns the target T3, MMP-13 (Homo sapiens, UniProt P45452).
T3 construct: purchased Calbiochem (EMD/MERCK Biosciences)
On the procedure:
as §1
Since the purchased MMP-13 was Proenzyme, the activated one was used, which was incubated at 37° C. for 2 hours after the successive addition of an assay buffer (containing 50 mM Tris-HCl (pH7.6), 0.3 M NaCl, 10 mM CaCl2, 0.005% Brij35) and APMA (final concentration 1 mM) to the enzyme solution.
as §2, §3, §4, §5, §6, §7, §8, §9

Setting [4] is: APMA-activated proenzyme, substrate MOCAc-Pro-Leu-Gly-Leu-A2Pr(DNP)-Ala-Arg-NH2, fluorescent intensity, read-out: IC50 MMP-13.
Setting [5] is: compounds not described in the Tables, read-out: inhibiting activity for MMP-13.

Read-outs that look alike come from different tables or passages of the source. Where only a bound is given, the exact number is not on record here.

T1 sequence (P14780 94-707): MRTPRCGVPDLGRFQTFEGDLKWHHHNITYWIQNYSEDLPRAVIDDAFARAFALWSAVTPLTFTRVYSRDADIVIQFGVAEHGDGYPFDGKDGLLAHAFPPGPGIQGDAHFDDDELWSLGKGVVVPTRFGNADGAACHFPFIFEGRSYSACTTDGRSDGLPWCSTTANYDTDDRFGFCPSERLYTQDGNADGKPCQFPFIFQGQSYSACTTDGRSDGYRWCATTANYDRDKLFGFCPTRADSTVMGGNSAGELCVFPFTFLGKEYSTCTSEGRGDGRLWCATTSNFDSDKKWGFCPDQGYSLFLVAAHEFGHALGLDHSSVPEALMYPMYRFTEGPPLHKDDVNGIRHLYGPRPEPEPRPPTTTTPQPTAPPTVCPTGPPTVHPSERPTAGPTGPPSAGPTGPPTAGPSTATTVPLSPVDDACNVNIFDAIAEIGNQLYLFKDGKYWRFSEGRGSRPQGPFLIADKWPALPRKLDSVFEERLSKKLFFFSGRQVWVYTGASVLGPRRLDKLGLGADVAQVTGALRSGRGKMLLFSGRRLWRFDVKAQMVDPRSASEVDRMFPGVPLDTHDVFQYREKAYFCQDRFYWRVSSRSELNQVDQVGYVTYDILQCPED

Turning to `CC(C)[C@@H](NS(=O)(=O)N1CCN(c2ccc(C#Cc3ccc4ccnc(C(N)=O)c4c3)cc2)CC1)C(=O)O` [Compound V-88, (R)-2-{4-[4-(1-carbamoylisoquinolin-7-ylethynyl)-phenyl]-piperazine-1-sulfonylamino}-3-methylbutanoic acid], the IC50 in assay [1] is over 10 µM; in assay [2], 1 to 10 µM; in assay [3] (setting [4]) it was 0.024 µM.

Consider `CC(=O)c1ccc(Cl)c2ccc(C#Cc3ccc(N4CCN(S(=O)(=O)N[C@H](C)C(=O)O)CC4)cc3)cc12` [III-10, (R)-2-{4-[4-(8-acetyl-5-chrolonaphthalen-2-ylethynyl)-phenyl]-piperazine-1-sulfonylamino}-proponic acid], for which the results for the IC50 in assay [1], in assay [2] and in assay [3] (setting [4]) were over 10 µM, over 10 µM and 0.013 µM, respectively.

Turning to `COc1ccc(CNC(=O)c2cc(C#Cc3ccc(N4CCN(S(=O)(=O)N[C@@H](C(=O)O)C(C)C)CC4)cc3)ccn2)cc1` [III-150, (R)-2-(4-{4-[2-(4-methoxybenzylcarbamoyl)-pyridin-4-ylethynyl]-phenyl}-piperazine-1-sulfonylamino)-3-methylbutanoic acid], the IC50 in assay [1] was over 10 µM; in assay [2], 1 to 10 µM; in assay [3] (setting [4]) it was 0.007 µM.

In the case of `COc1ccc(Cn2c(=O)[nH]c3ccc(C#Cc4ccc(N5CCN(S(=O)(=O)N[C@@H](C(=O)O)C(C)C)CC5)cc4)cc3c2=O)cc1` [III-73, (R)-2-(4-{4-[3-(4-methoxybenzyl)-2,4-dioxo-1,2,3,4-tetrahydroquinazolin-6-ylethynyl]-phenyl}-piperazine-1-sulfonylamino)-3-methylbutanoic acid], the IC50 was over 10 µM in assay [1], over 10 µM in assay [2] and 0.023 µM in assay [3] (setting [4]).

Turning to `CC(C)CON=Cc1cccc2ccc(C#Cc3ccc(N4CCN(S(=O)(=O)N[C@H](C)C(=O)O)CC4)cc3)cc12` [III-17, (R)-2-(4-{4-[8-(isobutoxyiminomethyl)-naphthalen-2-ylethynyl]-phenyl}-piperazine-1-sulfonylamino)-proponic acid], the IC50 in assay [1] is over 10 µM; in assay [2], over 10 µM; in assay [3] (setting [4]), 0.025 µM.

Turning to `C[C@@H](NS(=O)(=O)N1CCN(c2ccc(C#Cc3ccc4c(c3)C(c3ccco3)=CCC4)cc2)CC1)C(=O)O` [Compound I-112, (R)-2-{4-[4-(8-furan-2-yl-5-6-dihydronaphthalen-2-ylethynyl)-phenyl]-piperazine-1-sulfonylamino}-proponic acid], the IC50 in assay [1] was over 10 µM; in assay [2] it was over 10 µM; in assay [3] (setting [4]) it was 0.062 µM.

Regarding `CC(C)[C@@H](NS(=O)(=O)N1CCN(c2ccc(C#Cc3ccnc(C(=O)NCc4ccccc4)c3)cc2)CC1)C(=O)O` [III-177, (R)-2-{4-[4-(2-benzylcarbamoylpyridin-4-ylethynyl)-phenyl]-piperazine-1-sulfonylamino}-3-methylbutanoic acid], the IC50 is over 10 µM in assay [1], 1 to 10 µM in assay [2] and 0.009 µM in assay [3] (setting [4]).

`CCOc1ccc(C#Cc2ccc(N3CCN(S(=O)(=O)N[C@H](C)C(=O)O)CC3)cc2)cc1-c1ncc(CC)o1` [Compound V-25, (R)-2-(4-{4-[4-ethoxy-3-(5-ethyloxazol-2-yl)-phenylethynyl]-phenyl}-piperazine-1-sulfonylamino)-proponic acid]: the IC50 in assay [1] was over 10 µM; in assay [2], 1 to 10 µM; in assay [3] (setting [4]), 0.009 µM.

In the case of `COc1ccc(Cn2ccc3ccc(C#Cc4ccc(N5CCN(S(=O)(=O)N[C@H](C(=O)O)C(C)C)CC5)cc4)cc3c2=O)cc1` [Compound V-37, (S)-2-(4-{4-[2-(4-methoxybenzyl)-1-oxo-1,2-dihydroisoquinolin-7-ylethynyl]-phenyl}-piperazine-1-sulfonylamino)-3-methylbutanoic acid], the IC50 in assay [1] is over 10 µM; in assay [2], over 10 µM; in assay [3] (setting [4]) it was 0.02 µM.

Consider `CCc1cnc(-c2cc(C#Cc3ccc(N4CCN(S(=O)(=O)N[C@H](C)C(=O)O)CC4)cc3)ccc2OCCOC)o1` [Compound V-23, (R)-2-(4-{4-[3-(5-ethyloxazol-2-yl)-4-(2-methoxyethoxy)-phenylethynyl]-phenyl}-piperazine-1-sulfonylamino)-proponic acid], for which the results for the IC50 in assay [1], in assay [2] and in assay [3] (setting [4]) were over 10 µM, 1 to 10 µM and 0.004 µM, respectively.

As for `CC(C)[C@@H](NS(=O)(=O)N1CCN(c2ccc(C#Cc3ccnc(C(=O)NCc4ccc(-n5cccn5)cc4)c3)cc2)CC1)C(=O)O` [III-214, (R)-3-methyl-2-(4-{4-[2-(4-pyrazol-1-ylbenzylcarbamoyl)-pyridin-4-ylethynyl]-phenyl}-piperazine-1-sulfonylamino)-butanoic acid], the results for the IC50 in assay [1], in assay [2] and in assay [3] (setting [4]) were over 10 µM, 1 to 10 µM and 0.006 µM, respectively.

For `CO/N=C(\C)c1cccc2ccc(C#Cc3ccc(N4CCN(S(=O)(=O)N[C@H](C)C(=O)O)CC4)cc3)cc12` [Compound I-95, (R)-2-{4-[4-(8-{1-[(E)-methoxyimino]-ethyl}-naphthalen-2-ylethynyl)-phenyl]-piperazine-1-sulfonylamino}-proponic acid], the IC50 in assay [3] (setting [5]) was in the range of 0.01 to 0.1 µM.

In the case of `C[C@@H](NS(=O)(=O)N1CCN(c2ccc(C#Cc3ccc4cccc(C(=O)NC5CC5)c4c3)cc2)CC1)C(=O)O` [Compound I-107, (R)-2-{4-[4-(8-cyclopropylcarbamoylnaphthalen-2-ylethynyl)-phenyl]-piperazine-1-sulfonylamino}-proponic acid], the IC50 in assay [3] (setting [5]) was under 0.01 µM.

For `C[C@@H](NS(=O)(=O)N1CCN(c2ccc(C#Cc3cccc(C(=O)NCc4ccccc4)n3)cc2)CC1)C(=O)O` [Compound I-18, (R)-2-{4-[4-(6-benzylcarbamoylpyridine 2-ylethynyl)-phenyl]-piperazine-1-sulfonylamino}-proponic acid], the IC50 in assay [3] (setting [5]) was under 0.01 µM.

Turning to `C[C@@H](NS(=O)(=O)N1CCN(c2ccc(C#Cc3ccc4cccc(C(=O)NCCF)c4c3)cc2)CC1)C(=O)O` [Compound I-56, (R)-2-(4-{4-[8-(2-fluoroethylcarbamoyl)-naphthalen-2-ylethynyl]-phenyl}-piperazine-1-sulfonylamino)-proponic acid], the IC50 in assay [3] (setting [5]) was under 0.01 µM.

Take `Cc1cnc(-c2cccc3ccc(C#Cc4ccc(N5CCN(S(=O)(=O)N[C@H](C)C(=O)O)CC5)cc4)cc23)o1` [Compound I-108, (R)-2-(4-{4-[8-(5-methyloxazol-2-yl)-naphthalen-2-ylethynyl]-phenyl}-piperazine-1-sulfonylamino)-proponic acid]: in assay [3] (setting [5]), the IC50 fell in the range of 0.01 to 0.1 µM.

In the case of `CC(C)C[C@@H](NS(=O)(=O)N1CCN(c2ccc(C#Cc3ccc4cccc(C(N)=O)c4c3)cc2)CC1)C(=O)O` [Compound I-60, (R)-2-{4-[4-(8-carbamoylnaphthalen-2-ylethynyl)-phenyl]-piperazine-1-sulfonylamino}-4-methylpentanoic acid], the IC50 in assay [3] (setting [5]) was 0.01 to 0.1 µM.

For the compound `C[C@@H](NS(=O)(=O)N1CCN(c2ccc(C#Cc3ccc4cccc(/C=C\C#N)c4c3)cc2)CC1)C(=O)O` [Compound I-69, (R)-2-(4-{4-[8-((Z)-2-cyanovinyl)-naphthalen-2-ylethynyl]-phenyl}-piperazine-1-sulfonylamino)-proponic acid], the IC50 in assay [3] (setting [5]) lay in the range of 0.01 to 0.1 µM.

Take `C[C@@H](NS(=O)(=O)N1CCN(c2ccc(C#Cc3ccc4cccc(C(=O)NCc5ccccc5)c4c3)cc2)CC1)C(=O)O` [Compound I-106, (R)-2-{4-[4-(8-benzylcarbamoylnaphthalen-2-ylethynyl)-phenyl]-piperazine-1-sulfonylamino}-proponic acid]: the IC50 in assay [3] (setting [5]) was under 0.01 µM.

Consider `CC(C)[C@H](NS(=O)(=O)N1CCN(c2ccc(C#Cc3ccc4cccc(C(N)=O)c4c3)cc2)CC1)C(=O)O` [Compound I-58, (S)-2-{4-[4-(8-carbamoylnaphthalen-2-ylethynyl)-phenyl]-piperazine-1-sulfonylamino}-3-methylbutanoic acid], for which the IC50 in assay [3] (setting [5]) was in the range of 0.01 to 0.1 µM.
